Columns and labels:
[1] = target: T1, human-homomeric 5-HT3A receptors (Homo sapiens, UniProt P46098); experiment: Voltage clamp in oocytes expressing human-homomeric 5-HT3A receptors; format: cell-based; conditions: agonism at higher concentrations
T1 sequence (P46098 24-478): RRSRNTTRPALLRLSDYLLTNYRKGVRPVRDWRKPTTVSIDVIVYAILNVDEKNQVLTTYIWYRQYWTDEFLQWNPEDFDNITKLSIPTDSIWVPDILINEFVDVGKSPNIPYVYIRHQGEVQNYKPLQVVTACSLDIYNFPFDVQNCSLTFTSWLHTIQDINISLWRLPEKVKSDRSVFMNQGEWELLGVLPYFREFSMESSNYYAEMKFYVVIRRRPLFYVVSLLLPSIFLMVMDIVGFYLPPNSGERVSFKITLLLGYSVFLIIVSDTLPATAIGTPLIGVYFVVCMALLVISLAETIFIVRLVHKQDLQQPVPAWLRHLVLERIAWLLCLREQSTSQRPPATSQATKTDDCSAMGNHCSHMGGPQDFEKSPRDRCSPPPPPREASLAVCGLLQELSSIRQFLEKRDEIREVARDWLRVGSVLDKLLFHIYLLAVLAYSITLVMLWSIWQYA
Method: The experiments were carried out as follows. […] Oocytes avoid of the follicle layer were selected and incubated for 24 hours in Modified Barth's Saline buffer [88 mM NaCl, 1 mM KCl, 15 mM HEPES, 2.4 mM NaHCO3, 0.41 mM CaCl2, 0.82 mM MgSO4, 0.3 mM Ca(NO3)2] supplemented with 2 mM sodium pyruvate, 0.1 U/l penicillin and 0.1 μg/l streptomycin. Stage […] oocytes were identified and injected with 12-48 nl of nuclease free water containing 14-50 pg of cRNA coding for human 5-HT3A receptors receptors and incubated at 18° C. until they were used for electrophysiological recordings (1-7 days after injection). […] Cells were impaled with agar plugged 0.5-1 MΩ electrodes containing 3 M KCl and voltage clamped at −90 mV by a GeneClamp 500B amplifier. The oocytes were continuously perfused with Ringer buffer and the drugs were applied in the perfusate.

[2] = tested on: extracellular levels of acetylcholine; experiment: Microdialysis, extracellular acetylcholine in prefrontal cortex of freely-moving rats (Example 2F); format: in vivo, rat; conditions: Wistar rats, s.c., FIG. 24
Method: The experiment was designed to evaluate the effects of compounds of the present invention on extracellular levels of acetylcholine in the prefrontal cortex of freely-moving rats.
Male Wistar rats (280-350 g; Harlan, Zeist, The Netherlands) were used for the experiments. Rats were individually housed in plastic cages (30×30×40 cm) and had ad libitum access to food and water.
Rats were anesthetized using isoflurane (2%, 400 mL/min N2O, 400 ml/min O2). Lidocain (10% m/v) was used for local anesthesia. […]
Experiments were carried out 24-48 hours after surgery. […] Samples were collected by an automated fraction collector (CMA 142), and stored at −80° C. until analyzed. […]
Concentrations of acetylcholine were determined by HPLC with tandem mass spectrometry (MS/MS) detection. […]
The LC/MS analyses were performed using an API 4000 MS/MS system consisting of an API 4000 MS/MS detector and a Turbo Ion Spray interface (both from Applied Biosystems, the Netherlands). […] Data were calibrated and quantitated using the Analyst™ data system (Applied Biosystem, version 1.2).
Two consecutive microdialysis samples with less then 50% variation were taken as baseline levels and set at 100%. Changes in acetylcholine concentration were expressed as percent of baseline within the same subject.

- Maximal current, % of the maximal current elicited by 5-HT [1]: 70-80%
Structure (SMILES): Cc1ccc(Sc2ccccc2C2CCNCC2)cc1 [compound I, 4-[2-(4-methylphenylsulfanyl)-phenyl]piperidine]
- Extracellular level of acetylcholine [2]: increase

— patent publication US9315459B2, “Crystalline forms of 4-[2-(4-methylphenylsulfanyl)-phenyl] piperidine” (priority 2006, dated 2016)
